What was measured:
[1] = molecular target: T1, Akt1 (Homo sapiens, UniProt P31749); test: AKT/PKB Kinase Assay; format: biochemical; settings: His-AKT (Full Length), 160 uM ATP, 90 min at 25 C
T1 construct: 0.1 ng/ul His-AKT (Full Length), (Invitrogen, Part #P2999, Lot #641228C); His; purchased Invitrogen P2999
Description: In order to measure AKT inhibition in the Caliper Life Sciences LC3000, a TTP Mosquito liquid handling instrument was used to place 125 nl of the appropriate concentration of inhibitor in 100% DMSO (for a dose response curve calculation) into each well of a 384-well plate. To this reaction components were added to a final volume of 12.5 ul: • 0.1 ng/ul His-AKT (Full Length), (Invitrogen, Part #P2999, Lot #641228C) • 160 uM ATP (Fluke, 02055) • 1 mM DTT (Sigma, D0632) • 1 mM MgCl2 (Sigma, M1028) • 1 uM substrate peptide (sequence FITC-AHA-GRPRTSSFAEG-NH2), synthesized by Tufts Peptide Synthesis service. • 100 mM HEPES pH 7.5 (Calbiochem, 391338) • 0.015% Brij-35 (Sigma, B4184)
(§1) The reaction was incubated for 90 min at 25 C, and then stopped by the addition of 70 ul of Stop buffer (100 mM HEPES pH 7.5, 0.015% Brij-35, 10 mM EDTA (Sigma, E7889)).
The plate was read on a Caliper LC 3000 in an Off-Chip mobility shift assay format, using the following parameters for a 12-sipper chip: screening pressure −2.3 psi, upstream voltage −500, and downstream voltage −3000.
These conditions cause unphosphorylated substrate and phosphorylated product peptide to resolve as separate peaks allowing direct measurement of percentage of conversion of substrate to product. The percent conversion was plotted against concentration of inhibitor to produce a sigmoidal dose response curve, from which an IC50 was calculated.

[2] = molecular target: T2, P70S6K (T412E mutant) (Homo sapiens, UniProt P23443, T412E); test: p70S6K Enzyme Assay; format: biochemical; settings: 24 μM ATP, 90 min at 25° C., Caliper mobility shift
T2 construct: purchased Millipore
T2 sequence (P23443 1-421 T412E limits assumed): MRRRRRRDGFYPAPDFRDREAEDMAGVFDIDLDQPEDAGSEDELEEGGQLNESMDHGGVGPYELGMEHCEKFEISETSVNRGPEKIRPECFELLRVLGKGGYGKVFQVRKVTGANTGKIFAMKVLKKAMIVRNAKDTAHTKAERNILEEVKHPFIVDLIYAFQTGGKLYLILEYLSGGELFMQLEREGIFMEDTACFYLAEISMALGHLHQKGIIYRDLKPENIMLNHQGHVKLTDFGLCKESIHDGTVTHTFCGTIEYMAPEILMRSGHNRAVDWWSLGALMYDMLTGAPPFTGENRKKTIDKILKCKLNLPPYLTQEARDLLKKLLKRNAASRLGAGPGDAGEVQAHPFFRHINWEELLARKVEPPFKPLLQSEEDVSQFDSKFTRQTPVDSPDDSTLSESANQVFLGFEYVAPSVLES
Description: p70S6K inhibitor compounds were diluted and plated in 96 well plates. A reaction mixture including the following components were then added to the compound plate to initiate the enzyme reaction; P70S6K (3 nM, T412E mutant, Millipore) was mixed with 24 μM ATP in an assay buffer containing 100 mM Hepes (pH 7.5), 5 mM MgCl2, 1 mM DTT, 0.015% Brij and 1 μM of the substrate peptide FITC-AHA-AKRRRLSSLRA-OH (derived from the S6 ribosomal protein sequence, FITC=fluorescein isothiocyanate, AHA=6-aminohexanoic acid). The reaction was incubated for 90 min at 25° C., before the addition of 10 mM EDTA to stop the reaction. The proportion of substrate and product (phosphorylated) peptide was analysed on a Caliper Life Sciences Lab Chip 3000, using a pressure of −1.4 psi, and upstream and downstream voltages of −3000 and −700 respectively. Product peaks were resolved before substrate peaks on the resulting chromatograms.
To assess the inhibitory potential of the compounds, IC50-values were determined, as shown in Chemical Synthesis section above.

[3] = molecular target: T3, Aurora B (Homo sapiens, UniProt Q96GD4); test: Aurora B Kinase Assay; format: biochemical; settings: GST-Aurora B (1-344), 10 uM ATP, 90 min at 25 C
T3 construct: GST-Aurora B (1-344 amino acids); GST (N); purchased Carna Biosciences 05-102
T3 sequence (Q96GD4 whole entry, the tested form may be a part): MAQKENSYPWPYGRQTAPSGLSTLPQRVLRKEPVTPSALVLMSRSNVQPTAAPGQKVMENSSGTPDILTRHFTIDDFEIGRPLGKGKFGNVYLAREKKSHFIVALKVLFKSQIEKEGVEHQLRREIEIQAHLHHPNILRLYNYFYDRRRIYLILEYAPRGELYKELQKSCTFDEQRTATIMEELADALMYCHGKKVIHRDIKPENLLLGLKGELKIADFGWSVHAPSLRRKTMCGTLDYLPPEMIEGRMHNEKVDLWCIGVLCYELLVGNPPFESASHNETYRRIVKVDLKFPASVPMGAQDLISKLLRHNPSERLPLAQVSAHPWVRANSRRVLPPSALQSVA
T3 sequence (Q9NQS7 803-918 partner limits assumed): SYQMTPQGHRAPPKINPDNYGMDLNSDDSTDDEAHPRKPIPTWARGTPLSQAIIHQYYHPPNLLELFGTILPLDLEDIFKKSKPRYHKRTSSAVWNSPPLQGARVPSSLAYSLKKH
Description: To measure inhibitor activity of Aurora B inhibitors in the Caliper Life Sciences LC3000, a TTP Mosquito liquid handling instrument was used to place 0.25 ul of the appropriate concentration of inhibitor in 100% DMSO (for a dose response curve calculation) into each well of a 384-well plate. To this reaction components was added to a final volume of 25 ul: • 0.1 ng/ul GST-Aurora B (1-344 amino acids), (Carna Biosciences 05-102. N-terminal GST fusion with His tagged INCEP, accession number Q96GD4). • 10 uM ATP (Fluka, 02055) • 1 mM DTT (Sigma, D0632) • 1 mM MgCl2 (Sigma, M1028) • 1 uM substrate peptide (sequence FITC-LRRASLG-(CONH2), synthesized by Tufts Peptide Synthesis service. • 100 mM HEPES pH 7.5 (Calbiochem, 391338) • 0.015% Brij-35 (Sigma, B4184)
as §1
The plate was read on a Caliper LC 3000 in an Off-Chip mobility shift assay format, using the following parameters for a 12-sipper chip: screening pressure −1.8 psi, upstream voltage −2700, downstream voltage −1000. These conditions caused unphosphorylated substrate and phosphorylated product peptide to resolve as separate peaks allowing direct measurement of percentage of conversion of substrate to product. The percent conversion was plotted against concentration of inhibitor to produce a sigmoidal dose response curve, from which an IC50 was calculated using XLFit for Microsoft Excel.

[4] = system: pS6 MDA-MB-468; test: Cellular Activity Assay (phospho-S6 in MDA-MB-468 cells); format: cell-based; settings: Homo sapiens, 2 hr compound incubation, percent pS6-positive cells
Description: MDA-MB-468 cells were grown in DMEM containing glutamine supplemented with 10% Fetal Bovine Serum (FBS) and 1× antibiotics. Cells were maintained by splitting 1:3 twice a week.
For the assay, cells were plated the evening before at a density of 4000 cells per well in black polyD lysine coated 384 well plates. Cells were incubated overnight (16 to 20 hours) in growth media. Compounds at an appropriate concentration were added to the wells and incubated for 2 hr. Controls included: i) no primary, ii) rabbit isotype, iii) propidium iodide (red) only and iv) anti-phospho-S6 antibody alone (green only). Cells were then fixed in 4% paraformaldehyde for 15-20 minutes at room temperature, then washed 3×80 ul with PBS.
50 ul 10% normal goat serum (NGS) with 0.2% triton X 100 in PBS were added and incubated for 30 to 60 minutes at room temperature. Anti-phospho-S6 antibody was diluted 1:800 2% with NGS in 0.2% TritonX-100 and 30 ul added to appropriate wells. The wells were incubated overnight at 4 degrees Celsius.
Then the wells were washed with 3×80 uL PBS. The secondary green fluorescence labeled antibody (Alexa Fluor® 488 F(ab′)2 fragment goat Anti-rabbit IgG (H+L)), was diluted 1:1500 in 2% NGS with 0.2% TritonX-100, and 30 ul were added to the appropriate wells which were then incubated in the dark at room temperature for 60 minutes. Then they were washed with 4×80 ul PBS. Propidium iodide (1.5 mM stock) was diluted 1:1000 in PBS, and 50 ul were added to the appropriate wells and incubated for 30 minutes at room temperature in the dark. Propidium iodide was not washed out. Plates were read on the Acumen Explorer.
Red and green cell populations were determined using controls. The number of green cells (pS6) and total number of cells (red) were then counted and the percentage of green cells was calculated. Percent positive cell data was plotted on a log scale against concentration of compounds and IC50 values were calculated from dose response curves.

T1 sequence (P31749 whole entry): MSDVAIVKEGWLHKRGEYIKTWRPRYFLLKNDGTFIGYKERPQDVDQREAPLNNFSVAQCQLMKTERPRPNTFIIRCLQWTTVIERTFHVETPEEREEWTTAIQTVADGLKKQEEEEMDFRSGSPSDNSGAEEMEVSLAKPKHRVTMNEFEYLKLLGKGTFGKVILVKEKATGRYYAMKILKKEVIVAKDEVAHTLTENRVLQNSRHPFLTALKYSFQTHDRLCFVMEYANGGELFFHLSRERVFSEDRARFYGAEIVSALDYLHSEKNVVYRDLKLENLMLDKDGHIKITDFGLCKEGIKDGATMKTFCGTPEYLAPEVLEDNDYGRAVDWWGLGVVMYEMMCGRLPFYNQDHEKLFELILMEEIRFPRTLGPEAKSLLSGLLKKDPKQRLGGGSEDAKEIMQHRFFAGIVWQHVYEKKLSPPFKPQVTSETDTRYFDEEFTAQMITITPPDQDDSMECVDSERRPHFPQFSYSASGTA

| Compound | IC50 [1] [nM] | IC50 [2] [nM] | IC50 [3] [nM] | IC50 [4] [nM] |
| --- | --- | --- | --- | --- |
| NC(=O)c1cccc2c(N[C@H](CN3CCC3)c3cc(F)cc(C(F)(F)F)c3)ncnc12 [Example 6, 4-[(S)-2-Azetidin-1-yl-1-(3-fluoro-5-trifluoromethylphenyl)-ethylamino]-quinazoline-8-carboxylic acid amide] | 9.1 | 2.3 | 270 | 98 |
| NC(=O)c1cccc2c(N[C@H](CN3CCC3)c3ccc(F)c(Cl)c3)ncnc12 [Example 7, 4-[(S)-2-Azetidin-1-yl-1-(3-chloro-4-fluorophenyl)-ethylamino]-quinazoline-8-carboxylic acid amide] | 12 | 1.3 | 58 | 1.3 |
| NC(=O)c1cccc2c(N[C@H](CN3CCC3)c3ccc(Br)cc3)ncnc12 [Example 8, 4-[(S)-2-Azetidin-1-yl-1-(4-bromophenyl)-ethylamino]-quinazoline-8-carboxylic acid amide] | 48 | 1.6 | 65 | 39 |
| NC(=O)c1cccc2c(N[C@H](CN3CCC3)c3ccc(C(F)(F)F)cc3)ncnc12 [Example 9, 4-[(S)-2-Azetidin-1-yl-1-(4-trifluoromethylphenyl)-ethylamino]-quinazoline-8-carboxylic acid amide] | 17 | 0.8 | 260 | 10 |
| NC(=O)c1cccc2c(N[C@H](CN3CCC3)c3ccc(Cl)cc3)ncnc12 [Example 10, 4-[(S)-2-Azetidin-1-yl-1-(4-chlorophenyl)-ethylamino]-quinazoline-8-carboxylic acid amide] | 21 | 1 | 43 | 36 |
| N#Cc1cccc([C@@H](CN2CCC2)Nc2ncnc3c(C(N)=O)cccc23)c1 [Example 11, 4-[(S)-2-Azetidin-1-yl-1-(3-cyanophenyl)-ethylamino]-quinazoline-8-carboxylic acid amide] | 270 | 3.3 | 690 | 382 |
| COc1cccc([C@@H](CN2CCC2)Nc2ncnc3c(C(N)=O)cccc23)c1 [Example 12, 4-[(S)-2-Azetidin-1-yl-1-(3-methoxyphenyl)-ethylamino]-quinazoline-8-carboxylic acid amide] | 250 | 4.4 | 67 | 204 |
| NC(=O)c1cccc2c(N[C@H](CN3CCC3)c3cccc(Br)c3)ncnc12 [Example 13, 4-[(S)-2-Azetidin-1-yl-1-(3-bromophenyl)-ethylamino]-quinazoline-8-carboxylic acid amide] | 5 | 0.3 | 17 | 25 |
| NC(=O)c1cccc2c(N[C@H](CN3CCC3)c3ccc(Cl)cc3F)ncnc12 [Example 14, 4-[(S)-2-Azetidin-1-yl-1-(2-fluoro-4-chlorophenyl)-ethylamino]-quinazoline-8-carboxylic acid amide] | 25 | 1.1 | 69 | 86 |
| NC(=O)c1cccc2c(N[C@H](CN3CCC3)c3ccc(F)cc3F)ncnc12 [Example 15, 4-[(S)-2-Azetidin-1-yl-1-(2,4-difluorophenyl)-ethylamino]-quinazoline-8-carboxylic acid amide] | 84 | 6 | 200 | 144 |
| NC(=O)c1cccc2c(N[C@H](CN3CCC3)c3c(F)cccc3F)ncnc12 [Example 16, 4-[(S)-2-Azetidin-1-yl-1-(2,6-difluorophenyl)-ethylamino]-quinazoline-8-carboxylic acid amide] | 91 | 5.4 | 170 | 183 |
| NC(=O)c1cccc2c(N[C@H](CN3CCC3)c3ccc(C(F)(F)F)c(Cl)c3)ncnc12 [Example 17, 4-[(S)-2-Azetidin-1-yl-1-(3-chloro-4-trifluoromethylphenyl)-ethylamino]-quinazoline-8-carboxylic acid amide] | 3.7 | 2.3 | 130 | 8 |
| NC(=O)c1cccc2c(N[C@H](CN3CCC3)c3cc(F)c(F)cc3F)ncnc12 [Example 18, 4-[(S)-2-Azetidin-1-yl-1-(2,4,5-trifluorophenyl)-ethylamino]-quinazoline-8-carboxylic acid amide] | 36 | 3.8 | 220 | 85 |
| NC(=O)c1cccc2c(N[C@H](CN3CCC3)c3ccc(F)c(F)c3F)ncnc12 [Example 19, 4-[(S)-2-Azetidin-1-yl-1-(2,3,4-trifluorophenyl)-ethylamino]-quinazoline-8-carboxylic acid amide] | 23 | 2.1 | 360 | 62 |
| NC(=O)c1cccc2c(N[C@H](CN3CCC3)c3ccc4c(c3)OCO4)ncnc12 [Example 20, 4-[(S)-2-Azetidin-1-yl-1-(1-benzo[1,3]dioxol)-ethylamino]-quinazoline-8-carboxylic acid amide] | 120 | 1.7 | 300 | 68 |
| N#Cc1ccc([C@@H](CN2CCC2)Nc2ncnc3c(C(N)=O)cccc23)cc1 [Example 23, 4-[(S)-2-Azetidin-1-yl-1-(4-cyano-phenyl)-ethylamino]-quinazoline-8-carboxylic acid amide] | 11 | 1.3 | 150 | 29 |

Source: patent publication US8946247B2, “Quinazoline carboxamide azetidines” (Merck Patent GmbH, priority 2010, dated 2015)
